Test results: patent US11180462B2, “Microbiocidal oxadiazole derivatives” (SYNGENTA PARTICIPATIONS AG, priority 2015, dated 2021)
Read-outs that look alike come from different tables or passages of the source.

Legend:
[1] = system: Puccinia recondita f. Sp. Tritici; test: Fungicidal activity against Puccinia recondita f. sp. tritici / wheat / leaf disc preventative (brown rust); assay type: in vivo; conditions: foliar, read-out: disease control
Procedure, shortened: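 Compound application precedes infection: segments of wheat cv. Kanzler, sprayed at 200 ppm, are inoculated with a spore suspension after 1 day. Incubation is at 19° C. with 75% relative humidity and 12 h light/12 h darkness, and control versus untreated leaves is rated 7 to 9 days post-application.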

[2] = system: Puccinia recondita f. Sp. Tritici; test: Fungicidal activity against Puccinia recondita f. sp. tritici / wheat / leaf disc curative (brown rust); assay type: in vivo; conditions: foliar, 24 h, read-out: disease control
Procedure, shortened: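 Curative test on wheat leaf segments (cv. Kanzler) on agar, inoculated with spore suspension and held dark at 19° C, 75% RH; formulated compound in water applied 1 day after inoculation. Incubated at 19° C, 75% RH, 12 h light/12 h dark; percent disease control versus untreated scored 6 to 8 days after application.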

[3] = system: Glomerella lagenarium (Colletotrichum lagenarium); test: Fungicidal activity against Glomerella lagenarium (Colletotrichum lagenarium) liquid culture / cucumber / preventative (anthracnose); assay type: cell-based; conditions: Colletotrichum orbiculare, read-out: disease control
Procedure, shortened: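 Photometric read-out of fungal growth after 2–7 days, expressed as percent antifungal activity versus untreated check. Cryo-stored conidia in PDB; compound at 20 ppm; dark, 24 °C, 96% RH.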

[4] = 200 ppm in the applied formulation, wheat leaf segments, preventative, compared to untreated control leaf disks
[5] = 200 ppm in the applied formulation, wheat leaf segments, curative (applied 1 day after inoculation), compared to untreated control leaf disks
[6] = 20 ppm in the applied formulation, liquid culture (PDB), growth inhibition measured photometrically after 3 to 4 days, compared to untreated control

COCCOCC(=O)N(OC)C(C)c1ccc(-c2noc(C(F)(F)F)n2)cc1 (stereo not drawn) [Compound 1.266, N-methoxy-2-(2-methoxyethoxy)-N-[1-[4-[5-(trifluoromethyl)-1,2,4-oxadiazol-3-yl]phenyl]ethyl]-acetamide]
≥ 80%: pest or weed control at 200 ppm [1, 4] | pest or weed control at 200 ppm [2, 5] | inhibition of growth at 20 ppm [3, 6]

O=C(C1CC1)N(Cc1ccc(-c2noc(C(F)(F)F)n2)cc1)Cc1ccco1 [Compound 1.474, N-(2-furylmethyl)-N-[[4-[5-(trifluoromethyl)-1,2,4-oxadiazol-3-yl]phenyl]methyl]-cyclopropane-carboxamide]
≥ 80%: pest or weed control at 200 ppm [1, 4] | pest or weed control at 200 ppm [2, 5] | inhibition of growth at 20 ppm [3, 6]

C#CC(=O)N(Cc1ccc(-c2noc(C(F)(F)F)n2)cc1)CC1CCCO1 (stereo not drawn) [Compound 1.434, N-(tetrahydrofuran-2-ylmethyl)-N-[[4-[5-(trifluoromethyl)-1,2,4-oxadiazol-3-yl]phenyl]methyl] prop-2-ynamide]
≥ 80%: pest or weed control at 200 ppm [1, 4] | pest or weed control at 200 ppm [2, 5] | inhibition of growth at 20 ppm [3, 6]

CN(Cc1ccc(-c2noc(C(F)(F)F)n2)cc1)C(=O)CCl [Compound 1.522, 2-chloro-N-methyl-N-[[4-[5-(trifluoromethyl)-1,2,4-oxadiazol-3-yl]phenyl]methyl]-acetamide]
≥ 80%: pest or weed control at 200 ppm [1, 4] | pest or weed control at 200 ppm [2, 5] | inhibition of growth at 20 ppm [3, 6]

CC=CC(=O)N(Cc1ccc(-c2noc(C(F)(F)F)n2)cc1)C(C)CC (stereo not drawn) [Compound 1.370, N-sec-butyl-N-[[4-[5-(trifluoromethyl)-1,2,4-oxadiazol-3-yl]phenyl]methyl] but-2-enamide]
≥ 80%: pest or weed control at 200 ppm [1, 4] | pest or weed control at 200 ppm [2, 5] | inhibition of growth at 20 ppm [3, 6]

CN(CC#N)C(=O)N(C)Cc1ccc(-c2noc(C(F)(F)F)n2)cc1 [Compound 3.70, 1-(cyanomethyl)-1,3-dimethyl-3-[[4-[5-(trifluoromethyl)-1,2,4-oxadiazol-3-yl]phenyl]methyl]urea]
≥ 80%: pest or weed control at 200 ppm [1, 4] | pest or weed control at 200 ppm [2, 5] | inhibition of growth at 20 ppm [3, 6]

COCCCC(=O)N(OC)C(C)c1ccc(-c2noc(C(F)(F)F)n2)cc1 (stereo not drawn) [Compound 1.280, N,4-dimethoxy-N-[1-[4-[5-(trifluoro-methyl)-1,2,4-oxadiazol-3-yl]phenyl]ethyl]-butanamide]
≥ 80%: pest or weed control at 200 ppm [1, 4] | pest or weed control at 200 ppm [2, 5] | inhibition of growth at 20 ppm [3, 6]

COCCN(Cc1ccc(-c2noc(C(F)(F)F)n2)cc1)C(=O)c1ccoc1 [Compound 1.362, N-(2-methoxyethyl)-N-[[4-[5-(trifluoromethyl)-1,2,4-oxadiazol-3-yl]phenyl]methyl]-furan-3-carboxamide]
≥ 80%: pest or weed control at 200 ppm [1, 4] | pest or weed control at 200 ppm [2, 5] | inhibition of growth at 20 ppm [3, 6]

CON(Cc1ccc(-c2noc(C(F)(F)F)n2)cc1)C(=O)OC(C)C [Compound 2.14, isopropyl N-methoxy-N-[[4-[5-(trifluoromethyl)-1,2,4-oxadiazol-3-yl]phenyl]methyl]-carbamate]
≥ 80%: pest or weed control at 200 ppm [1, 4] | pest or weed control at 200 ppm [2, 5] | inhibition of growth at 20 ppm [3, 6]

CC(C)N(C)C(=O)N(C)Cc1ccc(-c2noc(C(F)(F)F)n2)cc1 [Compound 3.79, 1-isopropyl-1,3-dimethyl-3-[[4-[5-(trifluoromethyl)-1,2,4-oxadiazol-3-yl]phenyl]methyl]urea]
≥ 80%: pest or weed control at 200 ppm [1, 4] | pest or weed control at 200 ppm [2, 5] | inhibition of growth at 20 ppm [3, 6]

CCC(C)N(Cc1ccc(-c2noc(C(F)(F)F)n2)cc1)C(=O)C=CC(C)=O (stereo not drawn) [Compound 1.396, 4-oxo-N-sec-butyl-N-[[4-[5-(trifluoromethyl)-1,2,4-oxadiazol-3-yl]phenyl]methyl]-pent-2-enamide]
≥ 80%: pest or weed control at 200 ppm [1, 4] | pest or weed control at 200 ppm [2, 5] | inhibition of growth at 20 ppm [3, 6]

CCCC(C)(C)C(=O)N(Cc1ccc(-c2noc(C(F)(F)F)n2)cc1)OC [Compound 1.10, N-methoxy-2,2-dimethyl-N-[[4-[5-(trifluoromethyl)-1,2,4-oxadiazol-3-yl]phenyl]methyl]-pentanamide]
≥ 80%: pest or weed control at 200 ppm [1, 4] | pest or weed control at 200 ppm [2, 5] | inhibition of growth at 20 ppm [3, 6]

COC(C)C(=O)N(Cc1ccc(-c2noc(C(F)(F)F)n2)cc1)CC1CCCO1 (stereo not drawn) [Compound 1.446, 2-methoxy-N-(tetrahydrofuran-2-ylmethyl)-N-[[4-[5-(trifluoromethyl)-1,2,4-oxadiazol-3-yl]phenyl]methyl]-propanamide]
≥ 80%: pest or weed control at 200 ppm [1, 4] | pest or weed control at 200 ppm [2, 5] | inhibition of growth at 20 ppm [3, 6]

COCCOCC(=O)N(CCOC)Cc1ccc(-c2noc(C(F)(F)F)n2)cc1 [Compound 1.340, 2-(2-methoxyethoxy)-N-(2-methoxyethyl)-N-[[4-[5-(trifluoromethyl)-1,2,4-oxadiazol-3-yl]phenyl]methyl]-acetamide]
≥ 80%: pest or weed control at 200 ppm [1, 4] | pest or weed control at 200 ppm [2, 5] | inhibition of growth at 20 ppm [3, 6]

CCCN(C)C(=O)N(CC)Cc1ccc(-c2noc(C(F)(F)F)n2)cc1 [Compound 3.94, 1-ethyl-3-methyl-3-propyl-1-[[4-[5-(trifluoromethyl)-1,2,4-oxadiazol-3-yl]phenyl]methyl]urea]
≥ 80%: pest or weed control at 200 ppm [1, 4] | pest or weed control at 200 ppm [2, 5] | inhibition of growth at 20 ppm [3, 6]

COCCN(C)C(=O)N(C)Cc1ccc(-c2noc(C(F)(F)F)n2)cc1 [Compound 3.67, 1-(2-methoxyethyl)-1,3-dimethyl-3-[[4-[5-(trifluoromethyl)-1,2,4-oxadiazol-3-yl]phenyl]methyl]urea]
≥ 80%: pest or weed control at 200 ppm [1, 4] | pest or weed control at 200 ppm [2, 5] | inhibition of growth at 20 ppm [3, 6]

CCN(Cc1ccc(-c2noc(C(F)(F)F)n2)cc1)C(=O)N(C)C1COC1 [Compound 3.91, 1-ethyl-3-methyl-3-(oxetan-3-yl)-1-[[4-[5-(trifluoromethyl)-1,2,4-oxadiazol-3-yl]phenyl]methyl]urea]
≥ 80%: pest or weed control at 200 ppm [1, 4] | pest or weed control at 200 ppm [2, 5] | inhibition of growth at 20 ppm [3, 6]

COCCN(Cc1ccc(-c2noc(C(F)(F)F)n2)cc1)C(=O)C1CCCC1 [Compound 1.332, N-(2-methoxyethyl)-N-[[4-[5-(trifluoromethyl)-1,2,4-oxadiazol-3-yl]phenyl]methyl]-cyclopentane-carboxamide]
≥ 80%: pest or weed control at 200 ppm [1, 4] | pest or weed control at 200 ppm [2, 5] | inhibition of growth at 20 ppm [3, 6]

CCN(Cc1ccc(-c2noc(C(F)(F)F)n2)cc1)C(=O)N(C)CC#N [Compound 3.88, 1-(cyanomethyl)-3-ethyl-1-methyl-3-[[4-[5-(trifluoromethyl)-1,2,4-oxadiazol-3-yl]phenyl]methyl]urea]
≥ 80%: pest or weed control at 200 ppm [1, 4] | pest or weed control at 200 ppm [2, 5] | inhibition of growth at 20 ppm [3, 6]

CON(Cc1ccc(-c2noc(C(F)(F)F)n2)cc1)C(=O)Oc1ccccc1 [Compound 2.6, phenyl N-methoxy-N-[[4-[5-(trifluoromethyl)-1,2,4-oxadiazol-3-yl]phenyl]methyl]-carbamate]
≥ 80%: pest or weed control at 200 ppm [1] | pest or weed control at 200 ppm [2] | inhibition of growth at 20 ppm [3]

CC=CC(=O)N(CCOC)Cc1ccc(-c2noc(C(F)(F)F)n2)cc1 [Compound 1.326, N-(2-methoxyethyl)-N-[[4-[5-(trifluoromethyl)-1,2,4-oxadiazol-3-yl]phenyl]methyl]but-2-enamide]
≥ 80%: pest or weed control at 200 ppm [1, 4] | pest or weed control at 200 ppm [2, 5] | inhibition of growth at 20 ppm [3, 6]

C#CCN(Cc1ccc(-c2noc(C(F)(F)F)n2)cc1)C(=O)C1(C(F)(F)F)CCC1 [Compound 1.161, N-prop-2-ynyl-1-(trifluoromethyl)-N-[[4-[5-(trifluoromethyl)-1,2,4-oxadiazol-3-yl]phenyl]methyl]-cyclobutane-carboxamide]
≥ 80%: pest or weed control at 200 ppm [1, 4] | pest or weed control at 200 ppm [2, 5] | inhibition of growth at 20 ppm [3, 6]

CC=C(C)C(=O)N(Cc1ccc(-c2noc(C(F)(F)F)n2)cc1)CC1CCCO1 (stereo not drawn) [Compound 1.417, 2-methyl-N-(tetrahydrofuran-2-ylmethyl)-N-[[4-[5-(trifluoromethyl)-1,2,4-oxadiazol-3-yl]phenyl]methyl]but-2-enamide]
≥ 80%: pest or weed control at 200 ppm [1, 4] | pest or weed control at 200 ppm [2, 5] | inhibition of growth at 20 ppm [3, 6]

CCN(C(=O)N(C)Cc1ccc(-c2noc(C(F)(F)F)n2)cc1)C1CC1 [Compound 3.71, 1-cyclopropyl-1-ethyl-3-methyl-3-[[4-[5-(trifluoromethyl)-1,2,4-oxadiazol-3-yl]phenyl]methyl]urea]
≥ 80%: pest or weed control at 200 ppm [1, 4] | pest or weed control at 200 ppm [2, 5] | inhibition of growth at 20 ppm [3, 6]
